Results published in ChEMBL document CHEMBL1126245, “Synthesis and anti-HIV activity of 9-[c-4,t-5-bis(hydroxymethyl)cyclopent-2-en-r-1-yl]-9H-adenine” (J Med Chem, 1992).
≈ marks a conversion by molar mass, not a printed value.

What was measured:
MT4 = experiment: In vitro antiviral activity against HIV-1 in MT-4 Cell; type: functional; conditions: Homo sapiens; for EC50: read-out: ED50 (the source's name); for IC50: read-out: ID50 (the source's name)
[1] = Therapeutic index (TI) was determined by dividing the ID50 by the ED50; type: cell-based; conditions: human, MT4 cells; read-out: TI

SMILES | EC50 (MT4) | IC50 (MT4) | selectivity ratio [1]
Nc1nc(O)c2ncn(C3C=CC(CO)C3CO)c2n1 (stereo not given) | > 100 µg/mL | > 100 µg/mL | 
Nc1ccn([C@H]2CC[C@@H](CO)O2)c(=O)n1 [ZALCITABINE] | 0.011 µg/mL (≈ 0.0521 µM) | 27 µg/mL (≈ 128 µM) | 2450
